# Patent US20230040182A1, “ARYL HETEROBICYCLIC COMPOUNDS AS Kv1.3 POTASSIUM SHAKER CHANNEL BLOCKERS” (priority 2019, published 2023)
# Target: T1, Kv1.3 potassium channel (Homo sapiens, UniProt P22001)
# T1 construct: expressed in transfected cells
# Test: Kv1.3 potassium channel blocker activity, automated whole-cell patch clamp (Patchliner)
# Type: cell-based
# Conditions: CHO-K1 cells stably expressing Kv1.3; whole-cell current, Hill fit
# Procedure: Example 9. Evaluation of Kv1.3 Potassium Channel Blocker Activities
# This assay is used to evaluate the disclosed compounds' activities as Kv1.3 potassium channel blockers.
# CHO-K1 cells stably expressing Kv1.3 were grown in DMEM containing 10% heat-inactivated FBS, 1 mM Sodium Pyruvate, 2 mM L-Glutamine and G418 (500 μg/ml). Cells were grown in culture flasks at 37° C. in a […] incubator.
# The cells were bathed in an extracellular solution containing 140 mM NaCl, 4 mM KCl, 2 mM CaCl2, 1 mM MgCl2, 5 mM Glucose, 10 mM HEPES; pH adjusted to 7.4 with NaOH; 295-305 mOsm. The internal solution contained 50 mM KCl, 10 mM NaCl, 60 mM KF, 20 mM EGTA, 10 mM HEPES; pH adjusted to 7.2 with KOH; 285 mOsm. All compounds were dissolved in DMSO at 30 mM. Compound stock solutions were freshly diluted with external solution to concentrations of 30 nM, 100 nM, 300 nM, 1 μM, 3 μM, 10 μM, 30 μM and 100 μM. The highest content of DMSO (0.3%) was present in 100 μM.
# The currents were evoked by applying 100 ms depolarizing pulses from −90 mV (holding potential) to +40 mV were applied with 0.1 Hz frequency. Control (compound-free) and compound pulse trains for each compound concentration applied contained 20 pulses. 10-second breaks were used between pulse trains (see Table A below).
# Whole-cell current recordings and compound application were enabled by means of an automated patch clamp platform Patchliner (Nanion Technologies GmbH). EPC 10 patch clamp amplifier (HEKA Elektronik Dr. Schulze GmbH) along with Patchmaster software (HEKA Elektronik Dr. Schulze GmbH) was used for data acquisition. Data were sampled at 10 kHz without filtering. Passive leak currents were subtracted online using a P/4 procedure (HEKA Elektronik Dr. Schulze GmbH). Increasing compound concentrations were applied consecutively to the same cell without washouts in between. Total compound incubation time before the next pulse train was not longer than 10 seconds. Peak current inhibition was observed during compound equilibration.
# AUC and peak values were obtained with Patchmaster (HEKA Elektronik Dr. Schulze GmbH). To determine IC50, the last single pulse in the pulse train corresponding to a given compound concentration was used. Obtained AUC and peak values in the presence of compound were normalized to control values in the absence of compound. Using Origin (OridinLab), IC50 was derived from data fit to Hill equation: Icompound/Icontrol=(100−A)/(1+([compound]/IC50)nH)+A, where IC50 value is the concentration at which current inhibition is half-maximal, [compound] is the applied compound concentration, A is the fraction of current that is not blocked and nH is the Hill coefficient.
# T1 sequence (P22001 whole entry): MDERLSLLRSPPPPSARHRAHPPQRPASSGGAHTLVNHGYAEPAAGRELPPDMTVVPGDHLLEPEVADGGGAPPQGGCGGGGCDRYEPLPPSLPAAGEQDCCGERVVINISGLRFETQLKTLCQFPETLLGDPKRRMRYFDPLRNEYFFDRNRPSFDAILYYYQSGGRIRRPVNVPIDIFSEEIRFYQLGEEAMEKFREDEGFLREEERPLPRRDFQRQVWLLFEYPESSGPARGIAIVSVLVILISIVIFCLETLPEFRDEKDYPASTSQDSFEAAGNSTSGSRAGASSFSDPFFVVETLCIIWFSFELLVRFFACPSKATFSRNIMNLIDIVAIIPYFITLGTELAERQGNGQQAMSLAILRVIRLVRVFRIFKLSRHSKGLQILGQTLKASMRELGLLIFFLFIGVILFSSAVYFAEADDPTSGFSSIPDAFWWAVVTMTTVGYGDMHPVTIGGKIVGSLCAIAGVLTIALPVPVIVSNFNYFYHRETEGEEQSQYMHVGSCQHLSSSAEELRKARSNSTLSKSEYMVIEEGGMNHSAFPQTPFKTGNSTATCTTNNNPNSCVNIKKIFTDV
row,IC50,Structure (SMILES)
1,< 1 µM,"Cc1ccc(O)c([C@@H]2CCN3C(=O)[C@@H](CO)NC(=O)[C@@H]3C2)c1Cl (relative stereo) [Compound 28, (8R,9aS)-rel-8-(2-chloro-6-hydroxy-3-methylphenyl)-3-((3R)-hydroxymethyl)-hexahydro-2H-pyrido[1,2-a]pyrazine-1,4-dione]"
2,< 1 µM,"NC[C@H]1NC(=O)[C@@H]2C[C@H](c3c(O)ccc(Cl)c3Cl)CCN2C1=O (relative stereo) [Compound 38, (8R,9aS)-rel-3-((3R)-aminomethyl)-8-(2,3-dichloro-6-hydroxyphenyl)-hexahydro-2H-pyrido[1,2-a]pyrazine-1,4-dione; trifluoroacetic acid]"
3,< 10 µM,"Cc1c(Cl)ccc(O)c1[C@@H]1CCN2C(=O)[C@@H](CO)NC(=O)[C@@H]2C1 (relative stereo) [Compound 49, (8R,9aS)-rel-8-(3-chloro-6-hydroxy-2-methylphenyl)-3-((3R)-hydroxymethyl)-hexahydro-2H-pyrido[1,2-a]pyrazine-1,4-dione]"
4,< 1 µM,"O=C1NC(=O)N2CC[C@@H](c3c(O)ccc(Cl)c3Cl)C[C@@H]12 (single isomer, unassigned; diastereoisomer 2) [Compound 19, 7-(2,3-dichloro-6-hydroxyphenyl)tetrahydro-imidazo[1,5-a]pyridine-1,3(2H,5H)-dione diastereoisomer 2]"
5,< 10 µM,"O=C1[C@H]2C[C@H](O)CN2C(=O)[C@H]2C[C@@H](c3c(O)ccc(Cl)c3Cl)CCN12 (single isomer, unassigned; isomer 1) [Compound 23, 7-(2,3-dichloro-6-hydroxyphenyl)-2-hydroxyhexahydro-1H-pyrido[1,2-a]pyrrolo[1,2-d]pyrazine-5,11(5aH,11aH)-dione isomer 1]"
6,< 10 µM,"O=C1[C@@H]2C[C@H](c3c(O)ccc(Cl)c3Cl)CCN2C(=O)[C@@H]2[C@H](O)CCN12 (single isomer, unassigned; isomer 1) [Compound 29, 7-(2,3-dichloro-6-hydroxyphenyl)-1-hydroxyhexahydro-1H-pyrido[1,2-a]pyrrolo[1,2-d]pyrazine-5,11(5aH,11aH)-dione isomer 1]"
7,< 1 µM,"O=C1[C@H]2[C@H](O)CCN2C(=O)[C@H]2C[C@@H](c3c(O)ccc(Cl)c3Cl)CCN12 (single isomer, unassigned; isomer 2) [Compound 17, 7-(2,3-dichloro-6-hydroxyphenyl)-1-hydroxyhexahydro-1H-pyrido[1,2-a]pyrrolo[1,2-d]pyrazine-5,11(5aH,11aH)-dione isomer 2]"
8,< 10 µM,"O=C1[C@H]2C[C@@H](c3c(O)ccc(Cl)c3Cl)CCN2C(=O)CN1C1CC(O)C1 (single isomer, unassigned; isomer 3) [Compound 34, 8-(2,3-dichloro-6-hydroxyphenyl)-2-[3-hydroxycyclobutyl]-hexahydropyrido[1,2-a]pyrazine-1,4-dione isomer 3]"
9,< 10 µM,"O=C1[C@@H]2C[C@H](O)CN2C(=O)[C@H]2C[C@@H](c3c(O)ccc(Cl)c3Cl)CCN12 (single isomer, unassigned; isomer 3) [Compound 45, 7-(2,3-dichloro-6-hydroxyphenyl)-2-hydroxyhexahydro-1H-pyrido[1,2-a]pyrrolo[1,2-d]pyrazine-5,11(5aH,11aH)-dione isomer 3]"
10,< 1 µM,"O=C1[C@H]2[C@H](O)CCN2C(=O)[C@@H]2C[C@H](c3c(O)ccc(Cl)c3Cl)CCN12 (single isomer, unassigned; isomer 3) [Compound 69, 7-(2,3-dichloro-6-hydroxyphenyl)-1-hydroxyhexahydro-1H-pyrido[1,2-a]pyrrolo[1,2-d]pyrazine-5,11(5aH,11aH)-dione isomer 3]"
11,< 10 µM,"O=C1[C@H]2C[C@@H](c3c(O)ccc(Cl)c3Cl)CCN2C(=O)CN1C1CC(O)C1 (single isomer, unassigned; isomer 4) [Compound 5, 8-(2,3-dichloro-6-hydroxyphenyl)-2-[3-hydroxycyclobutyl]-hexahydropyrido[1,2-a]pyrazine-1,4-dione isomer 4]"
12,< 10 µM,"C[C@@H]1NC(=O)C2CC(c3c(O)ccc(Cl)c3Cl)CCN2C1=O (stereo partly drawn) [Compound 4, (3S)-8-(2,3-dichloro-6-hydroxyphenyl)-3-methyl-octahydro-1H-pyrido[1,2-a]pyrazine-1,4-dione]"
13,< 10 µM,"O=C1[C@H]2C[C@@H](c3cc(Cl)c(Cl)cc3O)CCN2C(=O)CN1C1CNC1 [Compound 10, (8S,9aR)-2-(azetidin-3-yl)-8-(4,5-dichloro-2-hydroxyphenyl)hexahydro-4H-pyrido[1,2-a]pyrazine-1,4(6H)-dione]"
14,< 1 µM,"CC[C@H]1NC(=O)[C@H]2C[C@@H](c3c(O)ccc(Cl)c3Cl)CCN2C1=O [Compound 11, (8S,9aR)-8-(2,3-dichloro-6-hydroxyphenyl)-3-(3R)-ethyl-hexahydro-2H-pyrido[1,2-a]pyrazine-1,4-dione]"
15,< 30 µM,"CN1C(=O)[C@H]2C[C@@H](c3c(O)ccc(Cl)c3Cl)CCN2C(=O)[C@H]1CO [Compound 13, (3R,8S,9aR)-8-(2,3-dichloro-6-hydroxyphenyl)-3-(hydroxymethyl)-2-methyl-hexahydropyrido[1,2-a]pyrazine-1,4-dione]"
16,< 10 µM,"O=C1NNC(=O)N2CC[C@H](c3c(O)ccc(Cl)c3Cl)C[C@H]12 [Compound 15, (8S,9aR)-8-(2,3-dichloro-6-hydroxyphenyl)hexahydro-4H-pyrido[1,2-d][1,2,4]triazine-1,4(6H)-dione]"
17,< 10 µM,"C[C@@H](O)[C@H]1NC(=O)[C@H]2C[C@@H](c3c(O)ccc(Cl)c3Cl)CCN2C1=O [Compound 16, (3R,8S,9aR)-8-(2,3-dichloro-6-hydroxyphenyl)-3-[(1R)-1-hydroxyethyl]-hexahydro-2H-pyrido[1,2-a]pyrazine-1,4-dione]"
18,< 10 µM,"O=C1[C@H]2C[C@@H](c3c(O)ccc(Cl)c3Cl)CCN2C(=O)CN1C(CO)CO [Compound 21, (8S,9aR)-8-(2,3-dichloro-6-hydroxyphenyl)-2-(1,3-dihydroxypropan-2-yl)hexahydro-4H-pyrido[1,2-a]pyrazine-1,4(6H)-dione]"
19,< 10 µM,"O=C1[C@H]2[C@@H](O)CCN2C(=O)[C@H]2C[C@@H](c3c(O)ccc(Cl)c3Cl)CCN12 [Compound 25, (1S,5aR,7S,11aR)-7-(2,3-dichloro-6-hydroxyphenyl)-1-hydroxyhexahydro-1H-pyrido[1,2-a]pyrrolo[1,2-d]pyrazine-5,11(5aH,11aH)-dione]"
20,< 1 µM,"NN1C(=O)[C@H]2C[C@@H](c3c(O)ccc(Cl)c3Cl)CCN2C1=O [Compound 27, (7S,8aR)-2-amino-7-(2,3-dichloro-6-hydroxyphenyl)tetrahydro-imidazo[1,5-a]pyridine-1,3(2H,5H)-dione]"
21,< 1 µM,"O=C1N[C@H](CO)C(=O)N2CC(c3c(O)ccc(Cl)c3Cl)CC12 (stereo partly drawn) [Compound 31, (3R)-7-(2,3-dichloro-6-hydroxyphenyl)-3-(hydroxymethyl)hexahydro-pyrrolo[1,2-a]pyrazine-1,4-dione]"
22,< 1 µM,"O=C1NNC(=O)N2CC[C@@H](c3c(O)ccc(Cl)c3Cl)C[C@@H]12 [Compound 33, (8R,9aS)-8-(2,3-dichloro-6-hydroxyphenyl)hexahydro-4H-pyrido[1,2-d][1,2,4]triazine-1,4(6H)-dione]"
23,< 10 µM,"O=C1[C@H]2C[C@@H](c3c(O)ccc(Cl)c3Cl)CCN2C(=O)CN1CCO [Compound 37, (8S,9aR)-8-(2,3-dichloro-6-hydroxyphenyl)-2-(2-hydroxyethyl)-hexahydropyrido[1,2-a]pyrazine-1,4-dione]"
24,< 10 µM,"CC(C)[C@@H](O)[C@@H]1NC(=O)[C@H]2C[C@@H](c3c(O)ccc(Cl)c3Cl)CCN2C1=O [Compound 39, (3S,8S,9aR)-8-(2,3-dichloro-6-hydroxyphenyl)-3-[(1R)-1-hydroxy-2-methylpropyl]-hexahydro-2H-pyrido[1,2-a]pyrazine-1,4-dione]"
25,< 1 µM,"O=C1[C@@H]2C[C@H](c3c(O)ccc(Cl)c3Cl)CCN2C(=O)[C@H]2CC(O)CCN12 (stereo partly drawn) [Compound 40, (2R,6aR,12aS)-2-(2,3-dichloro-6-hydroxyphenyl)-8-hydroxyoctahydro-dipyrido[1,2-a:1′,2′-d]pyrazine-6,12(2H,6aH)-dione]"
